Reference: ChEMBL document CHEMBL1132906, “Squalamine analogues as potential anti-trypanosomal and anti-leishmanial compounds” (2000)
Several values for one entry are separate records, joined by “and”; a condition that tells them apart may be missing. Equal entries are not always repeated. Activity calls are given as the source filed them. No cut-off for these calls is given here.

Tests used:
Trypanosoma cruzi [1] = assay: The compound was evaluated for its inhibitory activity against Trypanosoma cruzi (toxic effect on macrophages); type: functional; settings: read-out: ED50 (the source's name)
[2] = The compound was evaluated for its toxicity against KB cells; type: functional; settings: Homo sapiens, read-out: ED50 (the source's name)
Leishmania donovani = assay: The compound was evaluated for its inhibitory activity against Leishmania donovani; type: functional; settings: read-out: ED50 (the source's name)
Trypanosoma brucei [3] = assay: The compound was evaluated for its inhibitory activity against Trypanosoma brucei; type: functional; settings: read-out: ED50 (the source's name)
Trypanosoma cruzi [4] = assay: The compound was evaluated for its inhibitory activity against Trypanosoma cruzi; type: functional; settings: read-out: ED50 (the source's name)
Mus musculus [5] = assay: Inhibitory activity (in vivo) against mice infected with Trypanosoma rhodesiense after intraperitoneal administration of compound (50 mg/kg for 4 days); No effect; type: functional, organism-based
Mus musculus [6] = assay: Percent reduction (in vivo) against mice infected with Leishmania donovani after intraperitoneal administration of compound (50 mg/kg for 5 days); type: functional
Trypanosoma brucei [7] = assay: The compound was evaluated for the inhibition of Trypanosoma brucei at 1 (ug/ml).; type: functional
Trypanosoma brucei [8] = assay: The compound was evaluated for its inhibitory activity against Trypanosoma brucei (indicate results of two experiments); type: functional; settings: read-out: ED50 (the source's name)

Row | Structure (SMILES) | EC50 (Trypanosoma cruzi [1]) [µM] | EC50 [2] [µM] | EC50 (Leishmania donovani) [µM] | EC50 (Trypanosoma brucei [3]) | EC50 (Trypanosoma cruzi [4]) | EC50 (Trypanosoma brucei [3]; Trypanosoma brucei) [µM] | Activity (Mus musculus [5]) | Reduction (Mus musculus [6]) [%] | Inhibition (Trypanosoma brucei [7]) [%] | EC50 (Trypanosoma brucei [8]) [µM]
1 | CC(C(=O)NCCCN(CCCCNC(=O)OC(C)(C)C)C(=O)OC(C)(C)C)[C@H]1CCC2C3CC=C4C[C@@H](O)CC[C@]4(C)C3CC[C@@]21C (stereo partly drawn) | > 15 | 65 | 25.7 | 4.7 µM and 1.5 µM |  |  |  |  |  | 
2 | CC(=O)O[C@H]1CC[C@@]2(C)C(=CCC3C2CC[C@@]2(C)C3CC[C@@H]2C(C)C(=O)NCCCN(CCCCN(CCCNC(=O)OC(C)(C)C)C(=O)OC(C)(C)C)C(=O)OC(C)(C)C)C1 (stereo partly drawn) |  | 31 | 4.7 | 0.57 µM | > 34 µM | 1.1 |  |  |  | 
3 | CC(C(=O)NCCCNCCCCNCCCN)[C@H]1CCC2C3CC=C4C[C@@H](O)CC[C@]4(C)C3CC[C@@]21C (stereo partly drawn) | > 57 | 15 | 5 | 1.1 µM |  | 0.56 | inactive | 16 |  | 
4 | N=C(N)c1ccc(OCCCCCOc2ccc(C(=N)N)cc2)cc1 [PENTAMIDINE] |  |  |  |  |  |  |  |  | 100 | 
5 | CC(C(=O)NCCCN(CCCCN(CCCNC(=O)OC(C)(C)C)C(=O)OC(C)(C)C)C(=O)OC(C)(C)C)[C@H]1CCC2C3CC=C4C[C@@H](O)CC[C@]4(C)C3CC[C@@]21C (stereo partly drawn) |  | 27 | 12.6 |  | > 36 µM |  |  |  |  | 0.6
6 | CC(C(=O)NCCCN(CCCCNC(=O)OC(C)(C)C)C(=O)OC(C)(C)C)[C@H]1CCC2C3CC=C4C[C@@H](OS(=O)(=O)O)CC[C@]4(C)C3CC[C@@]21C (stereo partly drawn) | > 36 | > 360 | 4.9 |  |  |  |  |  |  | > 36
7 | CC(C(=O)NCCCNCCCCN)[C@H]1CCC2C3CC=C4C[C@@H](O)CC[C@]4(C)C3CC[C@@]21C (stereo partly drawn) | > 63 | 3.3 | 44.7 | 1.9 µM and 0.63 µM |  |  |  |  |  | 
8 | CC(=O)O[C@H]1CC[C@@]2(C)C(=CCC3C2CC[C@@]2(C)C3CC[C@@H]2C(C)C(=O)NCCCN(CCCCNC(=O)OC(C)(C)C)C(=O)OC(C)(C)C)C1 (stereo partly drawn) |  | 111 | 17.3 |  | > 42 µM |  |  |  |  | 2.6
9 | CC(C(=O)NCCCNCCCCN)[C@H]1CCC2C3CC=C4C[C@@H](OS(=O)(=O)O)CC[C@]4(C)C3CC[C@@]21C (stereo partly drawn) |  | > 526 | 39.9 |  | 13.5 µM |  |  |  |  | > 53
10 | O=C(Cn1ccnc1[N+](=O)[O-])NCc1ccccc1 [BENZNIDAZOLE] |  |  |  |  | 7.45 µg/mL |  |  |  |  | 
